This passage reports viability, T/C and IC50 results from PubChem BioAssay AID2060508 (Molecular Pharmacology Branch, DTP, NCI, 2025).

The subject of this test is 454973-116-R2-J3-PDC spheroids, viability, % test/control. Put plainly: Anticancer human tumor 454973-116-R2-J3-PDC patient-derived pancreatic carcinoma cell line growth inhibition [GQUAD]. The conditions noted are these: spheroids with HUVEC and MSC; for viability, T/C: stronger effect = lower value. An excerpt: DNA G-quadruplex Stabilizer Agents in Combinations in Complex Spheroids
A high-throughput screen of multi-cell type tumor spheroids was designed to identify active combinations of DNA G-quadruplex stabilizer agents and targeted small molecules. Complex spheroids include a stromal component modeled by human endothelial cells (HUVEC) and fibroblasts modeled by human mesenchymal stem cells (MSCs). The concentration ranges selected for each drug and investigational agent were based upon clinically achievable concentrations if the clinical Cmax of the agent was known.
Compounds. The drugs and investigational agents: pidnarulex (CX-5461; NSC782164), APTO-253 (NSC789042), BRACO-19 (NSC847499), peposertib (NSC802822), ceralasertib (NSC780249), elimusertib (NSC800525), camonsertib (NSC841442), AZD-1390 (NSC803789), olaparib (NSC753686), talazoparib (NSC767125), ART-558 (NSC835418), sotorasib (NSC818433), MRTX-1133 (NSC836407), SN-38 (NSC673596), topotecan (NSC609699), etoposide (NSC141540), doxorubicin (NSC123127), gemcitabine (NSC613327), 5-fluorouracil (NSC19893), paclitaxel (NSC125973), vemurafenib (NSC761431), panobinostat (NSC761190), R-306465 (JNJ-16241199; NSC773264), adavosertib (NSC754352), TP-3654 (NSC805149), carboplatin (NSC241240), KSQ-4279 (NSC840948), and staurosporine (NSC755774) were obtained from the National Cancer Institute (NCI) Developmental Therapeutics Program Chemical Repository (34). The FDA-approved anticancer drug set is available from the NCI Developmental Therapeutics Program. […] The stock solutions were prepared in dimethyl sulfoxide (DMSO, Sigma-Aldrich, St. Louis, MO, cat. D2650) at 800-fold the tested concentration and stored at -70 degrees C prior to their use. All drugs and investigational agents were tested over a range starting from a high concentration at or near the clinical Cmax and decreasing in half-log increments. If the clinical Cmax for an agent had not been determined, the highest concentration tested was 10 microM.
2.3 Cell Culture. All cells were maintained in an incubator at 37 degrees C and 5% CO2 with 95% humidity. The PDC lines were cultured according to standard operating procedures established by the NCI PDMR. All PDCs were thawed and cultured in Matrigel-coated flasks prepared with a working solution of 1X Ham's F-12 nutrient mix, without supplementation (Invitrogen, cat. 11765054), 100 U/mL penicillin-streptomycin (Invitrogen, cat. 15140122), and 2.5% Matrigel (Corning Inc., cat. 354248) for the first three passages. The 857933-349-R-J2-PDC line was cultured in 6C/Colon 1B media, which includes advanced DMEM/F-12 (Thermo Fisher Scientific, cat. 12634028), 10 mM HEPES (Thermo Fisher Scientific, cat. 15630080), 1X GlutaMAX supplement (Thermo Fisher Scientific, cat. 35050061), 0.1 mg/mL primocin (InvivoGen, cat. ant-pm-2), 10% defined fetal bovine serum, heat inactivated (HyClone Laboratories Inc., cat. SH30070.03HI), 50% L-WRN conditioned media (ATCC, cat. CRL-3276), 1.25 mM N-Acetyl-L-cysteine (Sigma-Aldrich, cat. A9165), 10 mM nicotinamide (Sigma-Aldrich, cat. N0636), 1X B-27 supplement (Thermo Fisher Scientific, cat. 17504044), 1X N-2 supplement (Thermo Fisher Scientific, cat. 17502048), 10 microM Y-27632 dihydrochloride (Tocris Bioscience, cat. 1254), and 50 ng/mL human EGF recombinant protein (Thermo Fisher Scientific, cat. PHG0311). The 485176-168-R4-J1-PDC line was cultured in Panc media, which includes all 6C/Colon 1B media components plus 100 ng/mL human FGF-10 (Thermo Fisher Scientific, cat. 100-26), 500 nM SB-431542 (Selleckchem, cat. S1067), and gastrin (Tocris, cat. 3006).
[…]

The structures appear in SMILES notation. Where “and” joins values, the source holds several entries; their conditions need not be identical. Equal entries are not always repeated. A value given as a limit tells only on which side of the number the result lay.
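Further: spheroids exposed to compounds for seven days.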

For orientation: viability, T/C means the result in the treated group divided by that in the control group, in per cent. In general, IC50 refers to the concentration needed to halve the response being measured. Take `C#Cc1c(F)ccc2cc(O)cc(-c3ncc4c(N5CC6CCC(C5)N6)nc(OCC56CCCN5CC(F)C6)nc4c3F)c12` (stereo unspecified): the viability, T/C reads like this: (compound 0.0316 µM) 52.7% and 54.6% and 60.6%; (compound 0.1 µM) 42.3% and 39% and 39.8%; (compound 0.316 µM) 31.2% and 22.9% and 28.2%; (compound 1 µM) 27.5% and 20.6% and 21.6%; (compound 3.16 µM) 23.3% and 19.5% and 22%; (compound 10 µM) 19% and 15.4% and 15.2%. Where the note is “curve of compound”, the IC50 was 42.3 nM and 44.4 nM and 56.7 nM.

With `C=CCn1c(=O)c2cnc(Nc3ccc(N4CCN(C)CC4)cc3)nc2n1-c1cccc(C(C)(C)O)n1`, the viability, T/C (compound 0.0316 µM) was 108% (2×) and 104%; the viability, T/C (compound 0.1 µM) is 104% and 86.2% and 90.6%; the viability, T/C (compound 0.316 µM) was 54.8% and 68.5% and 59.1%; the viability, T/C (compound 1 µM) is 17.5% and 15.8% and 14.5%; the viability, T/C (compound 3.16 µM) is 7.41% and 7.71% and 9.27%; the viability, T/C (compound 10 µM) was 9.65% and 8.23% and 9.05%. Also, the IC50 (curve of compound) is 373 nM and 456 nM and 387 nM.

For `CC(=O)O[C@H]1C(=O)[C@@]2(C)[C@H]([C@H](OC(=O)c3ccccc3)[C@]3(O)C[C@H](OC(=O)[C@H](O)[C@@H](NC(=O)c4ccccc4)c4ccccc4)C(C)=C1C3(C)C)[C@]1(OC(C)=O)CO[C@@H]1C[C@@H]2O`, the viability, T/C by setting is: (compound 0.0316 µM) 16.1% and 19.8% and 21.1%; (compound 0.1 µM) 8.55% and 9.04% and 12.4%; (compound 0.316 µM) 7.38% and 7.58% and 9.89%; (compound 1 µM) 7.17% and 7.18% and 9.08%; (compound 3.16 µM) 6.82% and 7.18% and 9.43%; (compound 10 µM) 9.29% and 10.2% and 11.2%. Also, where the note is “curve of compound”, the 50% inhibitory concentration (IC50) was < 31.6 nM.

`CC(C)(O)C1CCC(Nc2ccc3ncc(-c4cccc(C(F)(F)F)c4)n3n2)CC1` (stereo unspecified): the viability, T/C is 105% and 109% and 106% (compound 0.0316 µM); 99.6% and 101% and 93.8% (compound 0.1 µM); 98.4% and 95.2% and 111% (compound 0.316 µM); 77.4% and 76.5% and 90.4% (compound 1 µM); 30.5% and 26.7% and 22.5% (compound 3.16 µM); 35% and 28.9% and 29.6% (compound 10 µM). In addition, the IC50 (curve of compound) was 2030 nM and 1880 nM and 2060 nM.

Regarding `CCCS(=O)(=O)Nc1ccc(F)c(C(=O)c2c[nH]c3ncc(-c4ccc(Cl)cc4)cc23)c1F`, the viability, T/C reads like this: (compound 0.0316 µM) 105% and 121% and 109%; (compound 0.1 µM) 108% and 104% and 96.3%; (compound 0.316 µM) 120% and 112% and 102%; (compound 1 µM) 111% and 113% and 112%; (compound 3.16 µM) 115% and 99.8% and 108%; (compound 10 µM) 7.3% and 7.67% and 14.8%. In addition, the concentration for half-maximal inhibition (IC50) (curve of compound) is 6250 nM and 5890 nM and 6400 nM.

Turning to `COc1ncnc(C2CC2)c1-c1ncc2cnn(Cc3ccc(-c4nc(C(F)(F)F)cn4C(C)C)cc3)c2n1`, the viability, T/C reads like this: (compound 0.0316 µM) 93.7% and 116% and 113%; (compound 0.1 µM) 103% (2×) and 110%; (compound 0.316 µM) 94.6% and 105% and 101%; (compound 1 µM) 94.7% and 98.2% and 94.5%; (compound 3.16 µM) 114% and 109% and 97.9%; (compound 10 µM) 99.9% and 102% (2×). Moreover, the 50% inhibitory concentration (IC50) (curve of compound) was > 10000 nM.

With `O=C(NO)c1cnc(N2CCN(S(=O)(=O)c3ccc4ccccc4c3)CC2)nc1`, the viability, T/C is, setting by setting: (compound 0.0316 µM) 107% and 108% and 101%; (compound 0.1 µM) 78.2% and 86.9% and 86.3%; (compound 0.316 µM) 27.8% and 30.5% and 22.7%; (compound 1 µM) 1.65% and 3.03% and 1.16%; (compound 3.16 µM) 0.25% and 0.22% and 0.12%; (compound 10 µM) 0.25% and 0.95% and 0.29%. For the same compound, the IC50 (curve of compound) was 189 nM and 212 nM and 193 nM.

For the compound `CC1COCCN1c1cc(C2(O)CC3CCC(C2)O3)c2cnn(-c3ccn[nH]3)c2n1` (stereo unspecified) + CN(C)c1ccc(Nc2c3ccc(NC(=O)CCN4CCCC4)cc3nc3cc(NC(=O)CCN4CCCC4)ccc23)cc1, the IC50 (curve of first compound, second compound 0.0316 µM) worked out at 176 nM; the IC50 (curve of first compound, second compound 0.1 µM) was found to be 174 nM; the IC50 (curve of first compound, second compound 0.316 µM) turned out to be 154 nM; the half-maximal inhibitory concentration (IC50) (curve of first compound, second compound 1 µM) came out at 146 nM; the IC50 (curve of first compound, second compound 3.16 µM) worked out at 167 nM; the IC50 (curve of first compound, second compound 10 µM) was determined as 99.5 nM. For the same compound, the viability, T/C (second compound 0.0316 µM, first compound 0.0316 µM) is 106%; the viability, T/C (second compound 0.0316 µM, first compound 0.1 µM) is 63.8%; the viability, T/C (second compound 0.0316 µM, first compound 0.316 µM) was 35.4%; the viability, T/C (second compound 0.0316 µM, first compound 1 µM) is 23.3%; the viability, T/C (second compound 0.0316 µM, first compound 3.16 µM) was 21.4%; the viability, T/C (second compound 0.0316 µM, first compound 10 µM) was 15%. Further, the viability, T/C (second compound 0.1 µM, first compound 0.0316 µM) is 98.6%; the viability, T/C (second compound 0.1 µM, first compound 0.1 µM) is 66.8%; the viability, T/C (second compound 0.1 µM, first compound 0.316 µM) was 31.2%; the viability, T/C (second compound 0.1 µM, first compound 1 µM) is 23.4%; the viability, T/C (second compound 0.1 µM, first compound 3.16 µM) is 22.4%; the viability, T/C (second compound 0.1 µM, first compound 10 µM) is 15%. The viability, T/C is 99.5% (second compound 0.316 µM, first compound 0.0316 µM); 61.5% (second compound 0.316 µM, first compound 0.1 µM); 30.6% (second compound 0.316 µM, first compound 0.316 µM); 21% (second compound 0.316 µM, first compound 1 µM); 23% (second compound 0.316 µM, first compound 3.16 µM); 13.1% (second compound 0.316 µM, first compound 10 µM). Also, the viability, T/C by setting is: (second compound 1 µM, first compound 0.0316 µM) 95.3%; (second compound 1 µM, first compound 0.1 µM) 58.4%; (second compound 1 µM, first compound 0.316 µM) 33.1%; (second compound 1 µM, first compound 1 µM) 19.5%; (second compound 1 µM, first compound 3.16 µM) 20.1%; (second compound 1 µM, first compound 10 µM) 15.5%. The viability, T/C runs as follows: (second compound 3.16 µM, first compound 0.0316 µM) 84%; (second compound 3.16 µM, first compound 0.1 µM) 63.2%; (second compound 3.16 µM, first compound 0.316 µM) 33.6%; (second compound 3.16 µM, first compound 1 µM) 19.9%; (second compound 3.16 µM, first compound 3.16 µM) 22.4%; (second compound 3.16 µM, first compound 10 µM) 14.9%. For the same compound, the viability, T/C is 65.7% (second compound 10 µM, first compound 0.0316 µM); 53% (second compound 10 µM, first compound 0.1 µM); 30.4% (second compound 10 µM, first compound 0.316 µM); 24.4% (second compound 10 µM, first compound 1 µM); 23% (second compound 10 µM, first compound 3.16 µM); 11.2% (second compound 10 µM, first compound 10 µM).
